Columns and labels:
Assay type in all cases: in vivo, human
Patient = assay: Treatment of a patient with recent myocardial infarction (Examples 16-18); conditions: oral, 1.0 to 100 mg/kg
Experimental: (§1) A person presents with sudden chest pain typically radiating to the left arm or left side of the neck, shortness of breath, nausea and palpitation with vomiting and sweating. After being evaluated with an electrocardiogram (EKG, ECG), a chest X-ray and blood tests to detect elevations in cardiac markers (blood tests to detect heart muscle damage), they are diagnosed as suffering from myocardial infarction. The patient is administered therapy such as aspirin, a drug to reduce the tendency of platelet aggregation, such as clopidogrel bisulfate, a statin, IV heparin and taken to the catheterization laboratory where they undergo stenting of the coronary artery. They are allowed to recover for a 12-24 hour period. Oral therapy with 3,4-methylenedioxy-6-nitrophenyl acetate (INV 75) (1.0 to 100 mg/kg) is started and continued for at least a year. During the follow-up visit a month later, patient reports improvement in symptoms.
as §1, with “Oral therapy with 3,4-methylenedioxy-6-nitrophenyl acetate (INV 75) (1.0 to 100 mg/kg) is started and continued for at least a year. During the follow-up visit a month later, patient reports improvement in symptoms.” left out
A person presents with sudden chest pain typically radiating to the left arm or left side of the neck, shortness of breath, nausea and palpitation with vomiting and sweating. After being evaluated with an electrocardiogram (EKG, ECG), a chest X-ray and blood tests to detect elevations in cardiac markers (blood tests to detect heart muscle damage), they are diagnosed as suffering from myocardial infarction. […]

Humans = assay: Treatment of atherosclerosis in humans, primary prevention (Example 22); conditions: oral, in excess of 12 months
Text: Individuals with risk factors for atherosclerosis such as family history, hypertension and high cholesterol are known to be at risk for future cardiovascular events such as heart attacks and strokes. These individuals are on primary prevention treatments such as hypolipidemic drug therapy such as statins aspirin and anti-hypertensive agents such as ACE inhibitors, diuretics or calcium channel blockers. They also will receive an acceptable dose of a composition comprising a compound of the present invention in an acceptable carrier orally chronically for durations in excess of 12 months. In one study, 3,4-methylenedioxy phenyl acetate (INV 73); 3,4-methylenedioxy-6-nitrophenol (INV 74); 3,4-methylenedioxy-6-nitrophenyl acetate (INV 75); 3,4-Methylenedioxy 6-nitro phenyl lipoate (INV-7465) or 3,4-Methylenedioxy phenyl lipoate (INV-7065) are administered to these individuals. A repeat IVUS measurement is made at the end of the treatment period to assess the effect of the infusion of the composition on coronary atherosclerosis in the target vessel.

Cardiovascular Patient = assay: Treatment of a cardiovascular patient with chest pain (Examples 8-10); conditions: 1.0 to 100 mg/kg
Experimental: A person presents with uncomfortable pressure, squeezing and pain in the center of their chest as well as in shoulders, arms, neck, jaw and back. […] After being evaluated with an angiography, they are diagnosed as suffering from atherosclerosis with plaque formation in the coronary arteries. The patient is administered a composition comprising an effective amount of 3,4-methylenedioxy-6-nitrophenyl acetate (INV 75) (1.0 to 100-mg/kg). Alternate therapies include, 3,4-methylenedioxy phenyl acetate (INV 73); 3,4-methylenedioxy-6-nitrophenol (INV 74; 3,4-Methylenedioxy 6-nitro phenyl lipoate (INV-7465) or 3,4-Methylenedioxy phenyl lipoate (INV-7065). The composition is optionally administered in conjunction with therapy such as administration of aspirin, a drug to reduce the tendency of platelet aggregation, such as clopidogrel bisulfate, a statin, an angiotensin converting enzyme inhibitor, and/or heparin or a combination thereof, using dosages known to one of ordinary skill in the art. Patient reports improvement in the chest pain, shortness of breath. They are again evaluated with an angiography to measure reduced plaque in their arteries.
A person presents with uncomfortable pressure, squeezing and pain in the center of their chest for less than 30 minutes. They are taken to the cardiac angiography suite for suspected unstable angina. […] After being evaluated with an angiography, they are diagnosed as suffering from atherosclerosis with plaque formation in the coronary arteries. The patient is administered a composition comprising an effective amount of 3,4-Methylenedioxy phenyl lipoate (INV-7065) (1.0 to 100 mg/kg). […] They are again evaluated with an angiography to measure reduced plaque in their arteries.
A person presents with uncomfortable pressure, squeezing and pain in the center of their chest for less than 30 minutes. […] After being evaluated with an angiography, they are diagnosed as suffering from atherosclerosis with plaque formation in the coronary arteries. […] They are again evaluated with an angiography to measure reduced plaque in their arteries.

In the case of `O=C(CCCCC1CCSS1)Oc1cc2c(cc1[N+](=O)[O-])OCO2` (stereo not drawn) [INV-7465, 3,4-Methylenedioxy 6-nitro phenyl lipoate], the “symptoms at follow-up visit a month later” value (“symptoms” below) (Patient) was “improvement”, the “plaque in the atherosclerotic coronary artery (IVUS)” value (from here on “plaque”) (Humans) was “reduced” and the “chest pain, shortness of breath” value (Cardiovascular Patient) was “improvement”.

For `CC(=O)Oc1cc2c(cc1[N+](=O)[O-])OCO2` [INV-75, 3,4-methylenedioxy-6-nitrophenyl acetate], the “symptoms” value (Patient) was “improvement”, the “plaque” value (Humans) was “reduced” and the “chest pain, shortness of breath” value (Cardiovascular Patient) was “improvement”.

For `O=C(CCCCC1CCSS1)Oc1ccc2c(c1)OCO2` (stereo not drawn) [INV-7065, 3,4-Methylenedioxy phenyl lipoate], the “symptoms” value (Patient) was “improvement”, the “plaque” value (Humans) was “reduced” and the “chest pain, shortness of breath” value (Cardiovascular Patient) was “improvement”.

From patent publication US8198317B2, “Methylenedioxy phenolic compounds and their use to treat disease” (The Ohio State University Research Foundation, priority 2008, dated 2012)
